Assay results as given in publication PMC9387934, “Randomized single oral dose phase 1 study of safety, tolerability, and pharmacokinetics of Iminosugar UV-4 Hydrochloride (UV-4B) in healthy subjects” (PLoS Neglected Tropical Diseases, 2022).
Counter-ions that a name gives are not always drawn.

Experiments:
[1] = set-up: method as in Investigator’s Brochure (IB); settings: dogs, ref Investigator’s Brochure (IB), cited from earlier work; for Finding at the highest dose: 150 mg/kg/dose TID for seven days
[2] = Phase 1a single ascending dose study: safety and tolerability (treatment-emergent adverse events); type: in vivo, human; settings: for Dose-limiting toxicity / Tolerability of single oral doses: po; for Maximum tolerated dose: single oral dose in humans, not yet determined
Procedure: UV-4 ((2R,3R,4R,5S)-2-(hydroxymethyl)-1-(9-methoxynonyl)piperidine-3,4,5-triol, also called N-(9’-methoxynonyl)-1-deoxynojirimycin, or MON-DNJ) hydrochloride was evaluated in a first-in-human, randomized, single-center, double-blind, placebo-controlled, parallel group, single ascending dose Phase 1a clinical trial in healthy subjects (Figs 1 and 2, ClinicalTrials.gov Identifier NCT02061358 https://clinicaltrials.gov/ct2/show/NCT02061358). The primary objective was to determine the safety and tolerability of a single-ascending oral dose of UV-4 hydrochloride (Fig 3). […] The secondary objective was to determine PK parameters describing absorption and elimination of UV-4 following a single oral dose of UV-4 hydrochloride. Eight cohorts of eight subjects each were enrolled and completed the study. In each cohort, six subjects received UV-4 as the hydrochloride; two received placebo. Subjects were screened against study eligibility criteria up to four weeks (Days -28 to -2) before admission to the clinic (Day -1). Dosing was performed on an inpatient basis. Subjects remained in clinic for 48 hours post-dosing for PK sample collection and safety assessments and were discharged from the clinic on Day 3. Subjects returned to the clinic on Day 4 for additional safety assessments, then again on Day 9 ± 1 for a final follow-up visit.
Safety assessments included telemetry (pre-dose and 12 hours during and post-dosing), 12-lead ECG measurements, vital signs (supine and standing) including systolic blood pressure (SBP) and diastolic blood pressure (DBP) (mmHg), pulse rate (beats/minute), respiratory rate (breaths/minute), and oral temperature, physical examinations, clinical laboratory assessments (hematology, clinical chemistry, coagulation, urinalysis, platelet function), stool evaluation including occult blood, and adverse events (AEs).
Safety oversight was provided by an independent safety monitor (ISM), Safety Review Committee (SRC), and Safety Monitoring Committee (SMC). In addition, a cardiologist reviewed all cases with AEs related to heart rate and blood pressure. Summary statistics for subject baseline characteristics and measurements, disposition, exposure, and safety were tabulated by cohort in a blinded manner for the review by the SRC and SMC. Blinded individual case information was also supplied to the SMC and cardiologist for review. SRC reviews occurred after all subjects in a given cohort completed evaluations, or after predefined criteria triggered a review (halting criteria). Provided satisfactory safety review, subjects were enrolled into the next higher dose cohort. In addition, the SMC met to review all safety and exposure data after completion of Cohort 3. All AEs were coded to System Organ Class (SOC) and Preferred Term (PT) using the Medical Dictionary for Regulatory Activities (MedDRA), Version 16.1 [34].
All AEs were graded for severity and relationship to study product, according to one of the following categories:
• Grade 1: An event that is easily tolerated by the subject, causing minimal discomfort and not interfering with everyday activities; • Grade 2: An event that is sufficiently discomforting to interfere with normal everyday activities; • Grade 3: An event that prevents normal everyday activities; • Grade 4: An event that requires an emergency room visit or hospitalization […]
9.1 Specification of Safety Parameters
Safety is a primary outcome measure.
Adverse events will be evaluated from time of dose administration through the follow-up visit. Adverse events that have not resolved at the follow-up visit will be followed until resolution or until medically stable. […]
If a vital sign measurement is observed to be abnormal, it may be repeated up to a total of 2 times at 5 to 10 minutes intervals. If a normal value is obtained, no further repeat measurements are required. If the value is still abnormal after 2 repeats, the least abnormal value will be utilized for grading the AE. The AE will […]

[3] = cited from earlier work

For `COCCCCCCCCCN1C[C@H](O)[C@@H](O)[C@H](O)[C@H]1CO` [UV-4B, N-(9’-methoxynonyl)-1-deoxynojirimycin hydrochloride], the “Finding at the highest dose” value [1] is given as “severe GI effects”, the “Finding at 10 mg/kg/dose TID” value [1] is given as “diarrhea was still apparent” and the “Related TEAE, Balance disorder: number (%) of subjects” value ([2]; both, human, in vivo) is given as 1/48. For the same molecule, the “Related TEAE, Dizziness postural: number (%) of subjects” value ([2]; both, human, in vivo) was 1/48, the “Related TEAE, Dizziness: number (%) of subjects” value ([2]; both, human, in vivo) was 1/48 and the “Related TEAE, Headache: number (%) of subjects” value ([2]; both, human, in vivo) was 2/48. For the same molecule, the Dose-limiting toxicity ([2]; in vivo) was “not observed”, the Maximum tolerated dose [2] was greater than 1000 mg and the “Bioavailability of the hydrochloride salt” value ([3]; animal studies) was “high bioavailability”.
For `COCCCCCCCCCN1C[C@H](O)[C@@H](O)[C@H](O)[C@H]1CO` [UV-4, N-(9’-methoxynonyl)-1-deoxynojirimycin], the “Finding at the highest dose” value [1] is listed as “severe GI effects”, the “Finding at 10 mg/kg/dose TID” value [1] is listed as “diarrhea was still apparent although not adverse” and the “Grade 2 Related TEAE: number (%) of subjects” value ([2]; both, human, in vivo) is listed as 1 (2.1%). The “Grade 3 Related TEAE: number (%) of subjects” value ([2]; both, human, in vivo) was 0, the “Grade 3 TEAE: number (%) of subjects” value ([2]; both, human, in vivo) was 1 (2.1%) and the “Incidence of Bristol Stool Scale Type 7” value ([2]; both, human, in vivo) was “no incidence of Bristol Stool Scale Type 7”. For the same molecule, the “Related TEAE, Abdominal Pain: number (%) of subjects” value ([2]; both, human, in vivo) was 1 (2.1%), the “Related TEAE, Balance disorder: number (%) of subjects” value ([2]; both, human, in vivo) was 1 (2.1%) and the “Related TEAE, Blood Calcium Decreased: number (%) of subjects” value ([2]; both, human, in vivo) was 1 (2.1%). For the same molecule, the “Related TEAE, Blood Pressure Decreased: number (%) of subjects” value ([2]; both, human, in vivo) was 0, the “Related TEAE, Cardiac disorders (System Organ Class): number (%) of subjects” value ([2]; both, human, in vivo) was 1 (2.1%) and the “Related TEAE, Dizziness postural: number (%) of subjects” value ([2]; both, human, in vivo) was 1 (2.1%). For the same molecule, the “Related TEAE, Dizziness: number (%) of subjects” value ([2]; both, human, in vivo) was 1 (2.1%), the “Related TEAE, Ear and labyrinth disorders (System Organ Class): number (%) of subjects” value ([2]; both, human, in vivo) was 1 (2.1%) and the “Related TEAE, Gastrointestinal disorders (System Organ Class): number (%) of subjects” value ([2]; both, human, in vivo) was 3 (6.3%). The “Related TEAE, General disorders and administration site conditions (System Organ Class): number (%) of subjects” value ([2]; both, human, in vivo) was 1 (2.1%), the “Related TEAE, Headache: number (%) of subjects” value ([2]; both, human, in vivo) was 2 (4.2%) and the “Related TEAE, Investigations (System Organ Class): number (%) of subjects” value ([2]; both, human, in vivo) was 2 (4.2%). The “Related TEAE, Lipase increased: number (%) of subjects” value ([2]; both, human, in vivo) was 1 (2.1%), the “Related TEAE, Local Swelling: number (%) of subjects” value ([2]; both, human, in vivo) was 1 (2.1%) and the “Related TEAE, Nervous system disorder (System Organ Class): number (%) of subjects” value ([2]; both, human, in vivo) was 4 (8.3%). The “Related TEAE, Neutrophil count decreased: number (%) of subjects” value ([2]; both, human, in vivo) was 0, the “Related TEAE, Presyncope: number (%) of subjects” value ([2]; both, human, in vivo) was 0 and the “Related TEAE, Proteinuria: number (%) of subjects” value ([2]; both, human, in vivo) was 1 (2.1%). For the same molecule, the “Related TEAE, Renal and urinary disorders (System Organ Class): number (%) of subjects” value ([2]; both, human, in vivo) was 1 (2.1%), the “Related TEAE, Supraventricular tachycardia: number (%) of subjects” value ([2]; both, human, in vivo) was 0 and the “Related TEAE, Ventricular tachycardia: number (%) of subjects” value ([2]; both, human, in vivo) was 1 (2.1%). For the same molecule, the “Related TEAE, Vertigo: number (%) of subjects” value ([2]; both, human, in vivo) was 1 (2.1%), the “Related TEAE, White blood cell count decreased: number (%) of subjects” value ([2]; both, human, in vivo) was 0 and the “Subjects with ≥1 TEAE: number (%) of subjects” value ([2]; both, human, in vivo) was 43 (89.6%). The “Tolerability of single oral doses” value ([2]; both, human, in vivo) was “safe at all doses tested up to 1000 mg”, the “Grade 1 Related TEAE: number (%) of subjects” value ([2]; human, in vivo) was 10 (20.8%) and the “TEAE Haematuria: number (%) of subjects” value ([2]; human, in vivo) was 4 (8.3). For the same molecule, the “TEAE Headache: number (%) of subjects” value ([2]; human, in vivo) was 3 (6.3), the “TEAE Prothrombin time prolonged: number (%) of subjects” value ([2]; human, in vivo) was 4 (8.3) and the “Dose-dependent increases in adverse events” value ([2]; in vivo) was “not observed”. The “Fecal occult blood findings” value ([2]; in vivo) was “None of the subjects had positive fecal occult blood findings”, the “Subjects reporting abdominal pain” value ([2]; in vivo) was “two” and the Subjects who vomited ([2]; in vivo) was “one”. For the same molecule, the Dose-limiting toxicity ([2]; in vivo) was “No dose limiting toxicity was observed”, the “Tolerability of single oral doses” value ([2]; in vivo) was “well tolerated” and the Maximum tolerated dose [2] was greater than 1000 mg. The Accumulation ([3]; BID or TID dosing after 14 days in mouse or dog, ref Investigator’s Brochure (IB)) was “did not accumulate”.
